Assay results reported in ChEMBL document CHEMBL1133061, “Synthesis of N-diisopropyl phosphoryl benzyltetrahydroisoquinoline, a new class of mitochondrial complexes I and III inhibitors” (Bioorg Med Chem Lett, 2000).
pIC50: −log10 of the molar value.

What follows are molecules tested against Mitochondrial complex I; NADH oxidoreductase (Bos taurus, UniProt P25708+P52505) (assay: Inhibitory concentration against NADH oxidase).
Format: protein-complex assay

Sequence of Mitochondrial complex I; NADH oxidoreductase (P25708 21-464 limits assumed, other chains not shown): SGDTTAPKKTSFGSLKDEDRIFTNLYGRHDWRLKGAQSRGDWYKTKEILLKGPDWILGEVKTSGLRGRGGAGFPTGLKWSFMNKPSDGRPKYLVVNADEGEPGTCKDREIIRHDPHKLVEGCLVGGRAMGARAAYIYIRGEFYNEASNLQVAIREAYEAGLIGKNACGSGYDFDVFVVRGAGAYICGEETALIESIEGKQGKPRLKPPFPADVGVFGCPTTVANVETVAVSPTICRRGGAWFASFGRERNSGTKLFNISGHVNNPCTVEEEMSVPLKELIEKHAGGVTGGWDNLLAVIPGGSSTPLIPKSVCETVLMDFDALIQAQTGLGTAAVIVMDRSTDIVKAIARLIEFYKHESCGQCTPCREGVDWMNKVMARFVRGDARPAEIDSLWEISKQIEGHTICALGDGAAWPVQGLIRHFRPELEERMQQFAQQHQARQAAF

Structure (SMILES)	pIC50
COc1cc2c(cc1OCc1ccccc1)CCN(C)C2Cc1ccccc1 (centres undefined)	5.57
COc1cc2c(cc1OCc1ccccc1)CCN(P(=O)(OC(C)C)OC(C)C)C2Cc1ccccc1 (centres undefined)	5.77
COc1cc2c(cc1OCc1ccccc1)CCN=C2Cc1ccccc1	5.54
COc1cc2c(cc1OCc1ccccc1)CCNC2Cc1ccccc1 (centres undefined)	5.41
